From US20140171316A1, “ANTHRANILAMIDE COMPOUNDS AND THEIR USE AS PESTICIDES” (BASF SE, priority 2011, published 2014)

Key:
Format in all cases: in vivo
Aphis craccivora = assay: Cowpea aphid (Aphis craccivora) spray test on potted cowpea plants; settings: sprayed cowpea plants, assessed after 72 hours, read-out: mortality in comparison with untreated controls
Description: The active compound was dissolved at the desired concentration in a mixture of 1:1 (vol:vol) distilled water:acetone. Surfactant (Alkamuls® EL 620) is added at a rate of 0.1% (vol/vol). The test solution was prepared at the day of use.
Potted cowpea plants were colonized with approximately 50-100 aphids of various stages by manually transferring a leaf tissue cut from infested plant 24 hours before application. Plants were sprayed after the pest population has been recorded. Treated plants were maintained on light carts at about 28° C. Percent mortality was assessed after 72 hours.

Ceratitis capitata = assay: Mediterranean fruitfly (Ceratitis capitata) microtiter plate insect diet test; settings: 120 h, sprayed onto insect diet, 5 days, read-out: mortality in comparison with untreated controls (egg and larval mortality)
Description: For evaluating control of Mediterranean fruitfly (Ceratitis capitata) the test unit consisted of microtiter plates containing an insect diet and 50-80 C. capitata eggs.
The compounds were formulated using a solution containing 75% v/v water and 25% v/v DMSO. Different concentrations of formulated compounds were sprayed onto the insect diet at 5 μl, using a custom built micro atomizer, at two replications.
(§1) After application, microtiter plates were incubated at about 28±1° C. and about 80±5% relative humidity for 5 days. Egg and larval mortality was then visually assessed.

Dichromothrips corbetti = assay: Orchid thrips (Dichromothrips corbetti) floral-immersion test; settings: dipped orchid flowers, adult thrips, 72 hours after treatment, read-out: mortality in comparison with untreated controls
Description: Dichromothrips corbetti adults used for bioassay were obtained from a colony maintained continuously under laboratory conditions. For testing purposes, the test compound was diluted in a 1:1 mixture of acetone:water (vol:vol), plus 0.01% vol/vol Alkamuls® EL 620 surfactant.
Thrips potency of each compound was evaluated by using a floral-immersion technique. Plastic petri dishes were used as test arenas. All petals of individual, intact orchid flowers were dipped into treatment solution and allowed to dry. Treated flowers were placed into individual petri dishes along with about 20 adult thrips. The petri dishes were then covered with lids. All test arenas were held under continuous light and a temperature of about 28° C. for duration of the assay. After 3 days, the numbers of live thrips were counted on each flower, and along inner walls of each petri dish. The percent mortality was recorded 72 hours after treatment.

Megoura viciae = assay: Vetch aphid (Megoura viciae) broad bean leaf disk test; settings: foliar, 120 h, sprayed broad bean leaf disks, adult aphids, 5 days, read-out: mortality in comparison with untreated controls
Description: For evaluating control of vetch aphid (Megoura viciae) through contact or systemic means the test unit consisted of 24-well-microtiter plates containing broad bean leaf disks.
The compounds were formulated using a solution containing 75% v/v water and 25% v/v DMSO. Different concentrations of formulated compounds were sprayed onto the leaf disks at 2.5 μl, using a custom built micro atomizer, at two replications.
After application, the leaf disks were air-dried and 5-8 adult aphids placed on the leaf disks inside the microtiter plate wells. The aphids were then allowed to suck on the treated leaf disks and incubated at about 23±1° C. and about 50±5% relative humidity for 5 days. Aphid mortality and fecundity was then visually assessed.

Heliothis virescens = assay: Tobacco budworm (Heliothis virescens) microtiter plate insect diet test; settings: 120 h, sprayed onto insect diet, 5 days, read-out: mortality in comparison with untreated controls (egg and larval mortality)
Description: For evaluating control of tobacco budworm (Heliothis virescens) the test unit consisted of 96-well-microtiter plates containing an insect diet and 15-25 H. virescens eggs.
The compounds were formulated using a solution containing 75% v/v water and 25% v/v DMSO. Different concentrations of formulated compounds were sprayed onto the insect diet at 10 μl, using a custom built micro atomizer, at two replications.
as §1

Anthonomus grandis = assay: Boll weevil (Anthonomus grandis) microtiter plate insect diet test; settings: 120 h, sprayed onto insect diet, 5 days, read-out: mortality in comparison with untreated controls (egg and larval mortality)
Description: For evaluating control of boll weevil (Anthonomus grandis) the test unit consisted of 24-well-microtiter plates containing an insect diet and 20-30 A. grandis eggs.
The compounds were formulated using a solution containing 75% v/v water and 25% v/v DMSO. Different concentrations of formulated compounds were sprayed onto the insect diet at 20 μl, using a custom built micro atomizer, at two replications.
After application, microtiter plates were incubated at about 23±1° C. and about 50±5% relative humidity for 5 days. Egg and larval mortality was then visually assessed.

Myzus persicae = assay: Green peach aphid (Myzus persicae) spray test on bell pepper plants; settings: 120 h, sprayed infested bell pepper plants, after 5 days, read-out: mortality in comparison with untreated controls
From the text: The active compounds were formulated in cyclohexanone as a 10,000 ppm solution supplied in tubes. The tubes were inserted into an automated electrostatic sprayer equipped with an atomizing nozzle and they served as stock solutions for which lower dilutions were made in 50% acetone:50% water (v/v). A nonionic surfactant (Kinetic®) was included in the solution at a volume of 0.01% (v/v).
Bell pepper plants at the first true-leaf stage were infested prior to treatment by placing heavily infested leaves from the main colony on top of the treatment plants. Aphids were allowed to transfer overnight to accomplish an infestation of 30-50 aphids per plant and the host leaves were removed. The infested plants were then sprayed by an automated electrostatic plant sprayer equipped with an atomizing spray nozzle. The plants were dried in the sprayer fume hood, removed, and then maintained in a growth room under fluorescent lighting in a 24-hr photoperiod at about 25° C. and about 20-40% relative humidity. Aphid mortality on the treated plants, relative to mortality on untreated control plants, was determined after 5 days.

CNC(=O)c1cc(/C=N/OC)cc(C)c1NC(=O)c1cnn(CC(F)(F)F)c1-c1ncccc1Cl [Compound 1-1, 5-(3-chloro-2-pyridyl)-N-[4-[(E)-methoxyiminomethyl]-2-methyl-6-(methylcarbamoyl)phenyl]-1-(2,2,2-trifluoroethyl)pyrazole-4-carboxamide]
> 75%: mortality at 500 ppm (Aphis craccivora) | mortality at 2500 ppm (Ceratitis capitata) | mortality at 500 ppm (Dichromothrips corbetti) | mortality at 2500 ppm (Megoura viciae) | mortality at 2500 ppm (Heliothis virescens) | mortality at 2500 ppm (Anthonomus grandis) | mortality at 2500 ppm (Myzus persicae)

CNC(=O)c1cc(-n2cncn2)cc(C)c1NC(=O)c1cnn(CC(F)(F)F)c1-c1ncccc1Cl [Compound 1-2, 5-(3-chloro-2-pyridyl)-N-[2-methyl-6-(methylcarbamoyl)-4-(1,2,4-triazol-1-yl)phenyl]-1-(2,2,2-trifluoroethyl)pyrazole-4-carboxamide]
> 75%: mortality at 500 ppm (Aphis craccivora) | mortality at 2500 ppm (Ceratitis capitata) | mortality at 500 ppm (Dichromothrips corbetti) | mortality at 2500 ppm (Megoura viciae) | mortality at 2500 ppm (Heliothis virescens) | mortality at 2500 ppm (Anthonomus grandis) | mortality at 2500 ppm (Myzus persicae)
